In paper PMC6631349 (Xenobiotica; the fate of foreign compounds in biological …, 2014):
Read-outs that look alike come from different tables or passages of the source.

Assays:
[1] = molecular target: T1, UGT2B4 (Homo sapiens, UniProt P06133); assay: UGT2B4 supersomes-catalyzed 4-MU glucuronidation inhibition; conditions: recombinant human UGT, mean of triplicate
T1 sequence (P06133 24-528): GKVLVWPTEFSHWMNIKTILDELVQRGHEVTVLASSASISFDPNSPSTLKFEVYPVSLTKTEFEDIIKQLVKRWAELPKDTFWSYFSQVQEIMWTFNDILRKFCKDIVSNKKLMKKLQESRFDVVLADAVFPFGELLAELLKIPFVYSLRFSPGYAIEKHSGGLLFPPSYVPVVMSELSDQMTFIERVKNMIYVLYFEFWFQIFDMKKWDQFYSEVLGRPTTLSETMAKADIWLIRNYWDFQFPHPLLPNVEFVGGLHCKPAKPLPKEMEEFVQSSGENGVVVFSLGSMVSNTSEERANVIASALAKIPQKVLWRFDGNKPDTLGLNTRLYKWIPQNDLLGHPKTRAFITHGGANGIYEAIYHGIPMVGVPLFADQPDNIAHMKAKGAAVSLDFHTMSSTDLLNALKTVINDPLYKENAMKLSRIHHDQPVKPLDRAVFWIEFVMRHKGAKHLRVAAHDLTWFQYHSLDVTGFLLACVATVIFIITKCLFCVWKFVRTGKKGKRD

[2] = molecular target: T2, UGT2B7 (Homo sapiens, UniProt P16662); assay: UGT2B7 supersomes-catalyzed 4-MU glucuronidation inhibition; conditions: for residual activity 2B7: recombinant human UGT, mean of triplicate
T2 sequence (P16662 24-529): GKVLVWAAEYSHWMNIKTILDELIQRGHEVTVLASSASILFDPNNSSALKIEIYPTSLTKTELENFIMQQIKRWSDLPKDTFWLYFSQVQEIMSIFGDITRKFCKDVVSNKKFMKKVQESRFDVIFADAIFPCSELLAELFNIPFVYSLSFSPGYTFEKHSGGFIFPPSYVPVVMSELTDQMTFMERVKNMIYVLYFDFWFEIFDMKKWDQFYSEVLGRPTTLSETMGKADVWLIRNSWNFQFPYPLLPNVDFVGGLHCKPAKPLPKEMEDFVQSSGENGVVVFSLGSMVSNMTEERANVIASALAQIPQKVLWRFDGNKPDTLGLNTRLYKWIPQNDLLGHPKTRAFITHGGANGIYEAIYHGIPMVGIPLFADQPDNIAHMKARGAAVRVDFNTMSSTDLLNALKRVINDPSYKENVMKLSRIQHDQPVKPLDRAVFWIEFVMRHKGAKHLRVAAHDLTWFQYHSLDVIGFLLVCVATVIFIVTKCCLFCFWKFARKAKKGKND

[3] = molecular target: T3, UGT1A1 (Homo sapiens, UniProt P22309); assay: UGT1A1 supersomes-catalyzed 4-MU glucuronidation inhibition; conditions: recombinant human UGT, mean of triplicate
T3 sequence (P22309 26-533): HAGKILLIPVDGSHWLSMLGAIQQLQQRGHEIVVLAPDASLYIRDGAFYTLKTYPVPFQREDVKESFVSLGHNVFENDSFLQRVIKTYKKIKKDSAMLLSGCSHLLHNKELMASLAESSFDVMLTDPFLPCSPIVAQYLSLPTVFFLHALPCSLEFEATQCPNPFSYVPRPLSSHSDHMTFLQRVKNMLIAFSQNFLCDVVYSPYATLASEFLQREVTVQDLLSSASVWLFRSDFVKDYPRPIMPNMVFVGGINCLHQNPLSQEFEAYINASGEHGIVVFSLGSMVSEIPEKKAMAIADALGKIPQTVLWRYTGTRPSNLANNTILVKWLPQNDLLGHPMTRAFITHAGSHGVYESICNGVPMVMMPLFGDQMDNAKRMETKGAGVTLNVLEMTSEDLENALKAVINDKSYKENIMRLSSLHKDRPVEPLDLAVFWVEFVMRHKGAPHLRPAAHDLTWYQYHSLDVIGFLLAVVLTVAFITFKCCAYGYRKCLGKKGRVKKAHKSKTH

[4] = molecular target: T4, UGT1A8 (Homo sapiens, UniProt Q9HAW9); conditions: recombinant human UGT, mean of triplicate
T4 sequence (Q9HAW9 26-530): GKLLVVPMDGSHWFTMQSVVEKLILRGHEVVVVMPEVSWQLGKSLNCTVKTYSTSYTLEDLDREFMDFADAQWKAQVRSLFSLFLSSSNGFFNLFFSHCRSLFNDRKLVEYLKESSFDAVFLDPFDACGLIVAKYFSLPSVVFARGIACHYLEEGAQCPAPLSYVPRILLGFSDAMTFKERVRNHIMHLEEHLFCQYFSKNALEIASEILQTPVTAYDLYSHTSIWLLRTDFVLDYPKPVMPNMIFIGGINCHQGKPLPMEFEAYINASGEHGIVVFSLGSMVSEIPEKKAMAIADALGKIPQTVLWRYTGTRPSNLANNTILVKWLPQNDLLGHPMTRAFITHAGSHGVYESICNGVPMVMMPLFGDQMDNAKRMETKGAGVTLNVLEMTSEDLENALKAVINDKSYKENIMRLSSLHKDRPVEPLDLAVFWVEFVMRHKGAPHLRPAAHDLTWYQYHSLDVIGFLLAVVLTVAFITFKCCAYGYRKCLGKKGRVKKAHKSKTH

[5] = molecular target: T5, UGT1A3 (Homo sapiens, UniProt P35503); assay: UGT1A3 supersomes-catalyzed 4-MU glucuronidation inhibition; conditions: recombinant human UGT, mean of triplicate
T5 sequence (P35503 29-534): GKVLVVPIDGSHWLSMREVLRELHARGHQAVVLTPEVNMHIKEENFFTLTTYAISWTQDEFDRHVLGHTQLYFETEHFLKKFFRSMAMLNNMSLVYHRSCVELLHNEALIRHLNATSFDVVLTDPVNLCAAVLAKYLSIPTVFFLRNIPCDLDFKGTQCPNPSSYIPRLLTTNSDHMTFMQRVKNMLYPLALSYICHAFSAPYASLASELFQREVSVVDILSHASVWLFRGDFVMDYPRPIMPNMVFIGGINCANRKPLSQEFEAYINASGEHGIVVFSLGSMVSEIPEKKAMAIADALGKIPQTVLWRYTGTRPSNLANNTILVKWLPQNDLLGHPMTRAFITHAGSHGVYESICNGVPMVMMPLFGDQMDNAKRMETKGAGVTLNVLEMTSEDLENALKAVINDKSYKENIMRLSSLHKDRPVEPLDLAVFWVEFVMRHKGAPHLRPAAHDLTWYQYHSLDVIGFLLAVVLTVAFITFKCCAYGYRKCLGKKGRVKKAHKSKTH

SMILES	residual activity 2B4 ([1]; 50 μM LPC components) [%]	residual activity 2B7 ([2]; 50 μM LPC components) [%]	residual activity 1A1 ([3]; 50 μM LPC components) [%]	residual activity 1A8 ([4]; 50 μM LPC components) [%]	residual activity 1A3 ([5]; 50 μM LPC components) [%]	residual activity 2B4 ([1]; 50 μM PC components) [%]	residual activity 2B7 ([2]; 50 μM PC components) [%]	residual activity 1A1 ([3]; 50 μM PC components) [%]	residual activity 1A8 ([4]; 50 μM PC components) [%]	residual activity 1A3 ([5]; 50 μM PC components) [%]	inhibition percentage of UGT2B7 activity ([2]; 50 μM) [%]
CCCCCCCCCCCCCC(=O)OC[C@@H](O)COP(=O)([O-])OCC[N+](C)(C)C [LPC 14:0]	217.1	90.5	171.3	19.2	74.2	–	–	–	–	–	–
CCCCCCCCCCCCCCCCCCCC(=O)OC[C@H](COP(=O)([O-])OCC[N+](C)(C)C)OC(=O)CCCCCCCCCCCCCCCCCCC [PC 20:0, 20:0]	–	–	–	–	–	79.5	88.9	202.3	94.9	90.8	–
CCCCCCCCCCCCCCC(=O)OC[C@@H](O)COP(=O)([O-])OCC[N+](C)(C)C [LPC 15:0]	152.6	43.9	162.9	1.6	52.8	–	–	–	–	–	–
CCCCCCCCCCCCCCCC(=O)OC[C@H](COP(=O)([O-])OCC[N+](C)(C)C)OC(=O)CCCCCCCCCCCCCCC [PC 16:0, 16:0]	–	–	–	–	–	185.1	60.3	192.6	107.6	92.6	–
CCCCCCCCCCCCCCCCCCCCC(=O)OC[C@H](COP(=O)([O-])OCC[N+](C)(C)C)OC(=O)CCCCCCCCCCCCCCCCCCCC [PC 21:0, 21:0]	–	–	–	–	–	80.3	26.2	185.2	36.9	88.2	–
CCCCCC(=O)OC[C@@H](O)COP(=O)([O-])OCC[N+](C)(C)C [LPC 6:0]	183.6	70.0	176.7	108.0	84.4	–	–	–	–	–	–
CCCCCCCCCC(=O)OC[C@H](COP(=O)([O-])OCC[N+](C)(C)C)OC(=O)CCCCCCCCC [PC 10:0, 10:0]	–	–	–	–	–	168.4	86.2	197.9	59.3	107.4	–
CCCCCCCCCCCCCCCCC(=O)OC[C@H](COP(=O)([O-])OCC[N+](C)(C)C)OC(=O)CCCCCCCCCCCCCCCC [PC 17:0, 17:0]	–	–	–	–	–	175.4	35.5	192.3	92.1	81.4	–
CCCCCCCCCCCCCCCCCCC(=O)OC[C@H](COP(=O)([O-])OCC[N+](C)(C)C)OC(=O)CCCCCCCCCCCCCCCCCC [PC 19:0, 19:0]	–	–	–	–	–	83.4	23.1	184.9	60.6	75.9	76.9
CCCCCCC(=O)OCC(O)COP(=O)([O-])OCC[N+](C)(C)C (stereo not shown) [LPC 7:0]	183.5	73.8	174.9	101.1	80.4	–	–	–	–	–	–
CCCCCCCCCCCCCCCCCCCCCCC(=O)OC[C@H](COP(=O)([O-])OCC[N+](C)(C)C)OC(=O)CCCCCCCCCCCCCCCCCCCCCC [PC 23:0, 23:0]	–	–	–	–	–	168.3	69.5	133.7	93.5	80.4	–
CCCCCCCCCCCCCCC(=O)OC[C@H](COP(=O)([O-])OCC[N+](C)(C)C)OC(=O)CCCCCCCCCCCCCC [PC 15:0, 15:0]	–	–	–	–	–	191.3	51.7	210.1	105.9	103.4	–
CCCCCCCCCCCCCC(=O)OC[C@H](COP(=O)([O-])OCC[N+](C)(C)C)OC(=O)CCCCCCCCCCCCC [PC 14:0, 14:0]	–	–	–	–	–	179.0	66.1	208.9	110.2	97.3	–
CCCCCCCCCCC(=O)OC[C@@H](O)COP(=O)([O-])OCC[N+](C)(C)C [LPC 11:0]	217.6	78.0	167.3	124.0	75.9	–	–	–	–	–	–
CCCCCCC(=O)OC[C@H](COP(=O)([O-])OCC[N+](C)(C)C)OC(=O)CCCCCC [PC 7:0, 7:0]	–	–	–	–	–	186.9	64.5	176.8	106.1	109.9	–
